Values quoted from earlier work as cited in US7163917B2, “Synthesis method of alanylglutamine” (priority 2002, dated 2007).
Peptide text beside a SMILES is read from it.

Assays:
[1] = background statement
[2] = solution, storage, heating to sterilize
[3] = within human body; quickly degraded into composition amino acids
[4] = healthy human body, long period intravenous drip

NC(=O)CC[C@H](N)C(=O)O [GLN, glutamine]
solubility (in words): low in solubility

CC(=O)N[C@@H](CCC(N)=O)C(=O)O [acetylglutamine, reference compound]
quantity absorbed that is excreted from urea [1]: 40%
stability (in words) [2]: stable at heating

C[C@H](N)C(=O)N[C@@H](CCC(N)=O)C(=O)O [L-Ala-L-Gln, L-alanyl-L-glutamine] (H-Ala-Gln-OH)
solubility relative to GLN monomer (synthesized by chemical method, after purification): 20 times
stability (in words) [2]: stable in storage and at heating for sterilization
half-life (in words) [3]: short
kidney functions [4]: not influenced
side effects and harmful reaction [4]: no side effects and harmful reaction occur

NCC(=O)N[C@@H](CCC(N)=O)C(=O)O [glycylglutamine, L-glycyl-L-glutamine, reference compound] (H-Gly-Gln-OH)
half-life (in words) [3]: short
